Test results taken from patent US11655235B2, “Pyrrolidine and piperidine compounds” (YUHAN CORPORATION, priority 2019, dated 2023).

Experiments:
Recombinant human FAP = molecular target: T1, Recombinant human FAP (Homo sapiens, UniProt Q12884); assay: FAP FRET assay, FGF21-sequence FRET peptide substrate; type: biochemical; conditions: FRET peptide with human FGF21 sequence, 6 μM, 37° C.
T1 construct: purchased R&D systems
T1 sequence (Q12884 1-760): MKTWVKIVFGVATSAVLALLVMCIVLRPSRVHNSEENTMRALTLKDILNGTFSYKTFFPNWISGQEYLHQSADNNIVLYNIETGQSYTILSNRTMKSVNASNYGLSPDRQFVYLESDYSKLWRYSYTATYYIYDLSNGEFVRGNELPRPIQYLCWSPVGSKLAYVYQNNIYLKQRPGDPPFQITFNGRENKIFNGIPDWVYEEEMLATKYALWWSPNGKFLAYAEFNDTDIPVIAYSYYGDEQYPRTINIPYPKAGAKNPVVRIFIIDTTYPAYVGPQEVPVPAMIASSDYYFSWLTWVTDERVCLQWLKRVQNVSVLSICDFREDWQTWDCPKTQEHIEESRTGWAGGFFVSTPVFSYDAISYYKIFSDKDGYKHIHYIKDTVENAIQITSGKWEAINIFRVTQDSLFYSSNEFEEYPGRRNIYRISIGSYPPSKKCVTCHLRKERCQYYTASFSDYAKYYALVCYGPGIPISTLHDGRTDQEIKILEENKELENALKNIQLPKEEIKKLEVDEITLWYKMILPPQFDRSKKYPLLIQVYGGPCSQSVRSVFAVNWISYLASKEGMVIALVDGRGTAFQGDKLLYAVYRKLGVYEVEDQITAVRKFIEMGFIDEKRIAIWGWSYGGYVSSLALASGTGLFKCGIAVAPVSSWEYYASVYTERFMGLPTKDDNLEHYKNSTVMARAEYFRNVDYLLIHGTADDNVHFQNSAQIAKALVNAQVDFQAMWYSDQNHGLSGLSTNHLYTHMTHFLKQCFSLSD
Description: The compounds according to the present technology were evaluated in terms of the inhibitory effect on the activity of dipeptidyl peptidases including FAP by using a substrate producing fluorescent substances upon enzymatic decomposition. The test was conducted at 25° C. to get a final reaction volume of 100 μL in a 96 black well plate. […] Briefly, the test compounds were dissolved in dimethyl sulfoxide (DMSO) at a concentration of 20 mM and then subjected to serial dilution, thereby creating an 8 point curve. As for the control group, a 6 point curve created by serial dilution of Talabostat in the same buffer solution was used. Fluorescence intensity was measured using a microplate reader (Flexstation3, Molecular Devices) under the wavelength condition exciting at 380 nm and reading the emission at 460 nm. The inhibitory effect of the test compounds was measured as a decrease (%) in the signal rate as compared to the control group without any inhibitor. Data was fixed to a logistic model with four variables and IC50 value was calculated using GraphPad Prism program. For the FAP FRET assay, recombinant human FAP (R&D systems) was diluted with 50 mM HEPES (pH 7.2) buffer comprising 150 mM of sodium chloride, 0.1 mg/ml of bovine serum albumin (BSA) and 1 mM EDTA to be 10 ng per final reaction. The test compounds were subjected to serial dilution in a buffer under the condition containing up to 0.1% of DMSO. FRET peptides containing human FGF21 sequence ([…]) conjugated with HyLite Fluor 488 and dark quencher QXL 520 (Anaspec) was used as a substrate. By dissolving in DMSO and then diluting in the same buffer, the substrate was added to be 6 μM per final reaction. All reactions of FRET assay was conducted at 37° C.

DPP4 = DPP4 (Homo sapiens, UniProt P27487); assay: DPP4 inhibition, fluorogenic substrate H-Gly-Pro-AMC; type: biochemical; set-up: purchased R&D Systems; conditions: recombinant human DPP4
Sequence of DPP4 (P27487 whole entry): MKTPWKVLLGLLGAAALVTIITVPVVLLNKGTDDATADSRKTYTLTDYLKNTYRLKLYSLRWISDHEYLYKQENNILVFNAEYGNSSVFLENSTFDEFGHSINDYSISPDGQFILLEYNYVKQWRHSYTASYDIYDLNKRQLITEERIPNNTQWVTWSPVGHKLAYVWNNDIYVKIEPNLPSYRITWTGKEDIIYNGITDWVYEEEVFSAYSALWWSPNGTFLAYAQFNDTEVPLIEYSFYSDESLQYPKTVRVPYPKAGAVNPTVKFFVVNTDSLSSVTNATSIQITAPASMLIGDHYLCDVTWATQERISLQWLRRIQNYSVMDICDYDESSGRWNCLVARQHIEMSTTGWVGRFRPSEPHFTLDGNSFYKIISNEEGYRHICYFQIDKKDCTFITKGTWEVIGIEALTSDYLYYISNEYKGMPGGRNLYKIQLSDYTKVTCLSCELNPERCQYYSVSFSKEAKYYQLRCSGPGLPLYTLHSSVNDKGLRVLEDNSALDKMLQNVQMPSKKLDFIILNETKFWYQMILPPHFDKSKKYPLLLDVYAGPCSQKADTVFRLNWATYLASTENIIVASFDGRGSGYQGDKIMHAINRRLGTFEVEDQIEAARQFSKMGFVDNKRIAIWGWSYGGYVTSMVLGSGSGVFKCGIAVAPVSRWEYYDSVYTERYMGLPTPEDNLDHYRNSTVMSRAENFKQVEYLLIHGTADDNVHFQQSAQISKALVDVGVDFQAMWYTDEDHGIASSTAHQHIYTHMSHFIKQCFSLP

Question: What does the source list for `COc1ccc2c(N[C@@H]3CCN(CC(=O)N4C[C@@H](F)C[C@H]4C#N)C3)ccnc2c1` [Example 193, (2S,4S)-4-fluoro-1-[2-[(3R)-3-[(7-methoxy-4-quinolyl)amino]pyrrolidin-1-yl]acetyl]pyrrolidine-2-carbonitrile]?
Answer: IC50 (Recombinant human FAP): 24.4 nM; IC50 (DPP4): 9090 nM

Question: `N#C[C@@H]1C[C@H](F)CN1C(=O)CN1CC[C@@H](Nc2ccnc3c(F)cccc23)C1` [Example 194, (2S,4S)-4-fluoro-1-[2-[(3R)-3-[(8-fluoro-4-quinolyl)amino]pyrrolidin-1-yl]acetyl]pyrrolidine-2-carbonitrile] was tested. Which IC50 (Recombinant human FAP) did it give?
Answer: 10.9 nM

Question: And the IC50 (DPP4)?
Answer: 19600 nM

Question: What does the source list for `COc1cccc2c(N[C@@H]3CCN(CC(=O)N4C[C@@H](F)C[C@H]4C#N)C3)ccnc12` [Example 195, (2S,4S)-4-fluoro-1-[2-[(3R)-3-[(8-methoxy-4-quinolyl)amino]pyrrolidin-1-yl]acetyl]pyrrolidine-2-carbonitrile]?
Answer: IC50 (Recombinant human FAP): 21.7 nM; IC50 (DPP4): 14100 nM

Question: Which IC50 (Recombinant human FAP) does the source give for `N#C[C@@H]1C[C@H](F)CN1C(=O)CN1CC[C@@H](Nc2ccnc3c(C(F)(F)F)cccc23)C1` [Example 196, (2S,4S)-4-fluoro-1-[2-[(3R)-3-[[8-(trifluoromethyl)-4-quinolyl]amino]pyrrolidin-1-yl]acetyl]pyrrolidine-2-carbonitrile] here?
Answer: 7.4 nM

Question: And the IC50 (DPP4)?
Answer: 3840 nM

Question: How did the IC50 (Recombinant human FAP) turn out when `N#C[C@@H]1CCCN1C(=O)CN1CC[C@@H](Nc2ccc3nc(C(F)(F)F)ccc3c2)C1` [Example 217, (2S)-1-[2-[(3R)-3-[[2-(trifluoromethyl)-6-quinolyl]amino]pyrrolidin-1-yl]acetyl]pyrrolidine-2-carbonitrile] was run?
Answer: 8.8 nM

Question: What about the IC50 (DPP4) of the same compound?
Answer: 29000 nM

Question: How did the IC50 (Recombinant human FAP) turn out when `Cc1cnc2ccc(N[C@@H]3CCN(CC(=O)N4CCC[C@H]4C#N)C3)cc2c1` [Example 218, (2S)-1-[2-[(3R)-3-[(3-methyl-6-quinolyl)amino]pyrrolidin-1-yl]acetyl]pyrrolidine-2-carbonitrile] was run?
Answer: 26.6 nM

Question: And the IC50 (DPP4)?
Answer: 17300 nM

Question: What does the source list for `COc1ccnc2ccc(N[C@@H]3CCN(CC(=O)N4CCC[C@H]4C#N)C3)cc12` [Example 219, (2S)-1-[2-[(3R)-3-[(4-methoxy-6-quinolyl)amino]pyrrolidin-1-yl]acetyl]pyrrolidine-2-carbonitrile]?
Answer: IC50 (Recombinant human FAP): 16.8 nM; IC50 (DPP4): 13000 nM

Question: Which IC50 (Recombinant human FAP) does the source give for `Cc1cc(N[C@@H]2CCN(CC(=O)N3CCC[C@H]3C#N)C2)cc2cccnc12` [Example 220, (2S)-1-[2-[(3R)-3-[(8-methyl-6-quinolyl)amino]pyrrolidin-1-yl]acetyl]pyrrolidine-2-carbonitrile] here?
Answer: 5.7 nM

Question: And the IC50 (DPP4)?
Answer: 13200 nM

Question: How did the IC50 (Recombinant human FAP) turn out when `N#C[C@@H]1CCCN1C(=O)CN1CC[C@@H](Nc2cc(F)c3ncccc3c2)C1` [Example 221, (2S)-1-[2-[(3R)-3-[(8-fluoro-6-quinolyl)amino]pyrrolidin-1-yl]acetyl]pyrrolidine-2-carbonitrile] was run?
Answer: 7.5 nM

Question: And the IC50 (DPP4)?
Answer: 11100 nM

Question: Which IC50 (Recombinant human FAP) does the source give for `N#C[C@@H]1CCCN1C(=O)CN1CC[C@@H](Nc2cc(Cl)c3ncccc3c2)C1` [Example 222, (2S)-1-[2-[(3R)-3-[(8-chloro-6-quinolyl)amino]pyrrolidin-1-yl]acetyl]pyrrolidine-2-carbonitrile] here?
Answer: 2.1 nM

Question: And the IC50 (DPP4)?
Answer: 11800 nM

Question: Which IC50 (Recombinant human FAP) does the source give for `Cc1ccc2nccc(N[C@@H]3CCN(CC(=O)N4CCC[C@H]4C#N)C3)c2c1` [Example 223, (2S)-1-[2-[(3R)-3-[(6-methyl-4-quinolyl)amino]pyrrolidin-1-yl]acetyl]pyrrolidine-2-carbonitrile] here?
Answer: 13.1 nM

Question: And the IC50 (DPP4)?
Answer: 92500 nM

Question: Which results are given for `COc1ccc2nccc(N[C@@H]3CCN(CC(=O)N4CCC[C@H]4C#N)C3)c2c1` [Example 224, (2S)-1-[2-[(3R)-3-[(6-methoxy-4-quinolyl)amino]pyrrolidin-1-yl]acetyl]pyrrolidine-2-carbonitrile]?
Answer: IC50 (Recombinant human FAP): 10 nM; IC50 (DPP4): 54200 nM

Question: How did the IC50 (Recombinant human FAP) turn out when `N#C[C@@H]1CCCN1C(=O)CN1CC[C@@H](Nc2ccnc3ccc(F)cc23)C1` [Example 225, (2S)-1-[2-[(3R)-3-[(6-fluoro-4-quinolyl)amino]pyrrolidin-1-yl]acetyl]pyrrolidine-2-carbonitrile] was run?
Answer: 7.2 nM

Question: What about the IC50 (DPP4) of the same compound?
Answer: 34200 nM

Question: With `N#C[C@@H]1CCCN1C(=O)CN1CC[C@@H](Nc2ccnc3ccc(Cl)cc23)C1` [Example 226, (2S)-1-[2-[(3R)-3-[(6-chloro-4-quinolyl)amino]pyrrolidin-1-yl]acetyl]pyrrolidine-2-carbonitrile] as the compound, how does the IC50 (Recombinant human FAP) read?
Answer: 4.8 nM

Question: And the IC50 (DPP4)?
Answer: 37900 nM

Question: With `N#C[C@@H]1CCCN1C(=O)CN1CC[C@@H](Nc2ccnc3c(F)cccc23)C1` [Example 227, (2S)-1-[2-[(3R)-3-[(8-fluoro-4-quinolyl)amino]pyrrolidin-1-yl]acetyl]pyrrolidine-2-carbonitrile] as the compound, how does the IC50 (Recombinant human FAP) read?
Answer: 7.2 nM

Question: What about the IC50 (DPP4) of the same compound?
Answer: 31700 nM

Question: What does the source list for `N#C[C@@H]1C[C@H](F)CN1C(=O)CN1CC[C@H](Nc2cnc3ncccc3c2)C1` [Example 272, (2S,4S)-4-fluoro-1-[2-[(3S)-3-(1,8-naphthyridin-3-ylamino)pyrrolidin-1-yl]acetyl]pyrrolidine-2-carbonitrile]?
Answer: IC50 (Recombinant human FAP): 16.3 nM; IC50 (DPP4): 2800 nM

Question: `N#C[C@@H]1C[C@H](F)CN1C(=O)CN1CC[C@H](Nc2cnc3nc(Cl)ccc3c2)C1` [Example 273, (2S,4S)-4-fluoro-1-[2-[(3S)-3-[(7-chloro-1,8-naphthyridin-3-yl)amino]pyrrolidin-1-yl]acetyl]pyrrolidine-2-carbonitrile] was tested. Which IC50 (Recombinant human FAP) did it give?
Answer: 19 nM

Question: What about the IC50 (DPP4) of the same compound?
Answer: 530 nM

Question: `CN(C(=O)c1ccc(N[C@H]2CCN(CC(=O)N3CCC[C@H]3C#N)C2)c2cccnc12)c1ccccc1` [Example 289, N-methyl-N-phenyl-5-[[(3S)-1-[2-oxo-2-[(2S)-2-cyanopyrrolidin-1-yl]ethyl]pyrrolidin-3-yl]amino]quinoline-8-carboxamide] was tested. Which IC50 (Recombinant human FAP) did it give?
Answer: 36.3 nM

Question: What about the IC50 (DPP4) of the same compound?
Answer: 14200 nM

Question: How did the IC50 (Recombinant human FAP) turn out when `CCN(c1cccc2ncccc12)C1CCN(CC(=O)N2C[C@@H](F)C[C@H]2C#N)CC1` [Example 305, (2S,4S)-1-[2-[4-[ethyl(5-quinolyl)amino]-1-piperidyl]acetyl]-4-fluoro-pyrrolidine-2-carbonitrile] was run?
Answer: 50.7 nM

Question: What about the IC50 (DPP4) of the same compound?
Answer: 2080 nM

Question: How did the IC50 (Recombinant human FAP) turn out when `Cc1ccc2ncc(N(C)C3CCN(CC(=O)N4CCC[C@H]4C#N)CC3)cc2c1` [Example 322, (2S)-1-[2-[4-[methyl-(6-methyl-3-quinolyl)amino]-1-piperidyl]acetyl]pyrrolidine-2-carbonitrile] was run?
Answer: 10.3 nM

Question: And the IC50 (DPP4)?
Answer: ≥ 100000 nM

Question: What does the source list for `COc1ccc2ncc(N(C)C3CCN(CC(=O)N4CCC[C@H]4C#N)CC3)cc2c1` [Example 323, (S)-1-(2-(4-((6-methoxyquinolin-3-yl)(methyl)amino)piperidin-1-yl)acetyl)pyrrolidine-2-carbonitrile]?
Answer: IC50 (Recombinant human FAP): 5.8 nM; IC50 (DPP4): ≥ 100000 nM

Question: Which IC50 (Recombinant human FAP) does the source give for `COc1ccc2cc(N(C)C3CCN(CC(=O)N4CCC[C@H]4C#N)CC3)cnc2c1` [Example 324, (2S)-1-[2-[4-[(7-methoxy-3-quinolyl)-methyl-amino]-1-piperidyl]acetyl]pyrrolidine-2-carbonitrile] here?
Answer: 25 nM

Question: And the IC50 (DPP4)?
Answer: ≥ 100000 nM

Question: Which IC50 (Recombinant human FAP) does the source give for `COc1cccc2cc(N(C)C3CCN(CC(=O)N4CCC[C@H]4C#N)CC3)cnc12` [Example 325, (2S)-1-[2-[4-[methyl-(8-methoxy-3-quinolyl)amino]-1-piperidyl]acetyl]pyrrolidine-2-carbonitrile] here?
Answer: 8.9 nM

Question: What about the IC50 (DPP4) of the same compound?
Answer: ≥ 100000 nM

Question: With `Cc1ccc2ncc(N(C)C3CCN(CC(=O)N4C[C@@H](F)C[C@H]4C#N)CC3)cc2c1` [Example 326, (2S,4S)-4-fluoro-1-[2-[4-[methyl-(6-methyl-3-quinolyl)amino]-1-piperidyl]acetyl]pyrrolidine-2-carbonitrile] as the compound, how does the IC50 (Recombinant human FAP) read?
Answer: 8.8 nM

Question: And the IC50 (DPP4)?
Answer: 50600 nM

Question: For `COc1ccc2ncc(N(C)C3CCN(CC(=O)N4C[C@@H](F)C[C@H]4C#N)CC3)cc2c1` [Example 327, (2S,4S)-4-fluoro-1-(2-(4-((6-methoxyquinolin-3-yl)(methyl)amino)piperidin-1-yl)acetyl)pyrrolidine-2-carbonitrile], which IC50 (Recombinant human FAP) is on record?
Answer: 3.1 nM

Question: And the IC50 (DPP4)?
Answer: 31500 nM
